Reference: patent US10787446B2 (GENENTECH, INC., priority 2015, dated 2020)

Molecular target: T1, hNav1.7 and the β1 subunit (Homo sapiens, UniProt Q15858)
T1 construct: expressed in transfected cells
Test: Tritiated compound competitive binding to membranes from cells heterologously expressing hNav1.7 and the β1 subunit (LBA)
Conditions: competition with 100 pM [3H]compound, 18 h, room temperature; IC50 by 4 parameter logistic model
Experimental: Example 235 Tritiated Compound Binding to Membranes Isolated from Cells that Heterologously Express hNav1.7 and the β1 Subunit
Preparation of membranes containing recombinantly expressed sodium channels: Frozen recombinant cell pellets were thawed on ice and diluted to 4 times the cell pellet weight with ice cold 50 mM Tris HCl, pH 7.4 buffer. The cell suspensions were homogenized on ice using a motorized glass dounce homogeniser. Homogenates were further diluted 8.4 times with ice cold 50 mM Tris HCl, pH 7.4 buffer and then centrifuged at 200×g at 4° C. for 15 min. The supernatants were collected and centrifuged at 10000×g at 4° C. for 50 min. The pellets were then re-suspended in 100 mM NaCl, 20 mM Tris HCl, pH 7.4 buffer containing 1% v/v protease inhibitors (Calbiochem) and re-homogenized on ice. The homogenized membranes were then processed through a syringe equipped with a 26 gauge needle. Protein concentrations were determined by Bradford Assay and the membranes were stored at −80° C.
Radioligand Binding Studies:
Saturation experiments. A competitive NaV1.7 inhibitor having a methyl group was tritiated. Three tritiums were incorporated in place of methyl hydrogens to generate [^3H]compound. Binding of this radioligand was performed in 5 mL borosilicate glass test tubes at room temperature. Binding was initiated by adding membranes to increasing concentrations of [^3H]compound in 100 mM NaCl, 20 mM Tris HCl, pH 7.4 buffer containing 0.01% w/v bovine serum albumin (BSA) for 18 h. […] After 18 h, the reactants were filtered through GF/C glass fiber filters presoaked in 0.5% w/v polyethylene imine. […] [^3H]compound bound to filters was quantified by liquid scintillation counting.
Competitive Binding Experiments:
Binding reactions were performed in 96-well polypropylene plates at room temperature for 18 h. In 360 μL, membranes were incubated with 100 pM [^3H]compound and increasing concentrations of Test Compound. […] Reactions were transferred and filtered through 96-well glass fiber/C filter plates presoaked with 0.5% polyethylene imine. The filtered reactions were washed 5 times with 200 μL ice cold buffer containing 0.25% BSA. Bound radioactivity was determined by liquid scintillation counting.
Data Analysis: For saturation experiments, non-specific binding was subtracted from total binding to provide specific binding and these values were recalculated in terms of pmol ligand bound per mg protein. Saturation curves were constructed and dissociation constants were calculated using the single site ligand binding model: Beq=(Bmax*X)/(X+Kd), where Beq is the amount of ligand bound at equilibrium, Bmax is the maximum receptor density, Kd is the dissociation constant for the ligand, and X is the free ligand concentration. For competition studies percent inhibition was determined and IC50 values were calculated using a 4 parameter logistic model (% inhibition=(A+((B−A)/(1+((x/C)^D)))) using XLfit, where A and B are the maximal and minimum inhibition respectively, C is the IC50 concentration and D is the (Hill) slope.

T1 sequence (Q15858 whole entry): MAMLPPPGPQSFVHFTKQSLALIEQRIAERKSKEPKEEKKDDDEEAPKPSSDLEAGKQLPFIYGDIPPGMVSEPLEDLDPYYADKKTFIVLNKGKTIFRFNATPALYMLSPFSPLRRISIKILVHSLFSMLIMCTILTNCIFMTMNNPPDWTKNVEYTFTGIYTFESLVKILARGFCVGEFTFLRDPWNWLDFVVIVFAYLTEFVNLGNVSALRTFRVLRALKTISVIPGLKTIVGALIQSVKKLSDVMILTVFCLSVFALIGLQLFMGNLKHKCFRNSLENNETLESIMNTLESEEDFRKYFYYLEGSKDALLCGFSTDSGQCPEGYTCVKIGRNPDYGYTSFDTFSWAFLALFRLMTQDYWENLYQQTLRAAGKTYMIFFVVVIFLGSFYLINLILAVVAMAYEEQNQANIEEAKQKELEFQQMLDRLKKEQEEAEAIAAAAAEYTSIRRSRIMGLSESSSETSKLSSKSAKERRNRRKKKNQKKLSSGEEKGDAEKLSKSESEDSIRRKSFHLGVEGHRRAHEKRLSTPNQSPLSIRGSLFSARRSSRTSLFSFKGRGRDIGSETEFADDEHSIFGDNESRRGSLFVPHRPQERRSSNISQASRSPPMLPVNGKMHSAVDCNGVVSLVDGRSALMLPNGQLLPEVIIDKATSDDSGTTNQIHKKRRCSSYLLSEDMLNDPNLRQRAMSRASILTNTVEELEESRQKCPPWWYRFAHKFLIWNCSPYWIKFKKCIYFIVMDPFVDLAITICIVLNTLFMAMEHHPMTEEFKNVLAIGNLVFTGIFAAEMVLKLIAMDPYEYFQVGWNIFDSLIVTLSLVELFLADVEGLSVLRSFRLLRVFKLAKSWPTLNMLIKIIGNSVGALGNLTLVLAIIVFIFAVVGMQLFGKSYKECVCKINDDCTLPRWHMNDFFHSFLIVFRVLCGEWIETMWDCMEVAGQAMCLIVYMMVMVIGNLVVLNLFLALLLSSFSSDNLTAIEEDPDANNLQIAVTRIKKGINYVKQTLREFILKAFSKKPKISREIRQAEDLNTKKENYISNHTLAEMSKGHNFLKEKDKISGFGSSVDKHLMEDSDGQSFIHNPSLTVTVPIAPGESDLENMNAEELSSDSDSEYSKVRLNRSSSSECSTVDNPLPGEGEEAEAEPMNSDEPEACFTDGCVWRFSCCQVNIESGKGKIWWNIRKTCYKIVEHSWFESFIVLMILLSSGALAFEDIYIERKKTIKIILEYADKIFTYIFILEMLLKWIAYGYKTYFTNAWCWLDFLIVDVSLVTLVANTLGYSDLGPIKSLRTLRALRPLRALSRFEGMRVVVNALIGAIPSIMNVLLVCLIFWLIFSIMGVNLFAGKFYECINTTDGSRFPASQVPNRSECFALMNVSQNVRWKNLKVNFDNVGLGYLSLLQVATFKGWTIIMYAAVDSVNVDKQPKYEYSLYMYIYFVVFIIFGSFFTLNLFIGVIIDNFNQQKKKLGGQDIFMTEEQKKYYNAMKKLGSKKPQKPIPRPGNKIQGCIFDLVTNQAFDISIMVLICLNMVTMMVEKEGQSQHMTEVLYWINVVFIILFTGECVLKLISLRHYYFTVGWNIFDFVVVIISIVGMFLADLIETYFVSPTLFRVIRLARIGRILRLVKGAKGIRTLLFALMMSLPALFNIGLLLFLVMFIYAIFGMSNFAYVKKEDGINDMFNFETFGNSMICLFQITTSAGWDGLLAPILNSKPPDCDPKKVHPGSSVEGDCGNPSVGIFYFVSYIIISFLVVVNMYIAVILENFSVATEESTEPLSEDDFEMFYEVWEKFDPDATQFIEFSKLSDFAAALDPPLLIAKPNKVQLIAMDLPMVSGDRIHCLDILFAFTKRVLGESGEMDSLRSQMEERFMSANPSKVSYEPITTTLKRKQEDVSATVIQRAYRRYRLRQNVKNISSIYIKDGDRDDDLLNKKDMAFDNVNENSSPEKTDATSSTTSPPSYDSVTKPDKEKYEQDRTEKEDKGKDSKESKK
T1 sequence (Q07699 19-218 partner): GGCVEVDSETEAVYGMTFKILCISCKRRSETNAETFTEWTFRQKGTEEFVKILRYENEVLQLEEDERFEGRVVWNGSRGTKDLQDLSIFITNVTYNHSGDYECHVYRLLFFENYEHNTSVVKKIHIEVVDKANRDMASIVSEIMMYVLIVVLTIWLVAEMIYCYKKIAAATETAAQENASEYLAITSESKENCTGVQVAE

Row | Compound | Nav1.7 (LBA)
1 | O=S(=O)(Nc1ncns1)c1ccc2c(c1)OCC[C@H]2N1CC[C@H](CF)C[C@@H]1c1ccc(F)cc1 [Example 184, (R)-4-((2R,4S)-4-(fluoromethyl)-2-(4-fluorophenyl)piperidin-1-yl)-N-(1,2,4-thiadiazol-5-yl)chroman-7-sulfonamide] | 0.132 µM
2 | Nc1[nH]ncc1C1CCCCN1Cc1cc(F)c(S(=O)(=O)Nc2ncns2)cc1F (stereo not drawn) [Example 118, 4-((2-(5-Amino-1H-pyrazol-4-yl)piperidin-1-yl)methyl)-2,5-difluoro-N-(1,2,4-thiadiazol-5-yl)benzenesulfonamide] | 2.26 µM
3 | O=S(=O)(Nc1ncns1)c1ccc2c(c1)OCC[C@@H]2N1CCCC[C@@H]1CCO (single isomer, unassigned) [Example 152] | 3.31 µM
4 | O=S(=O)(Nc1ncns1)c1ccc2c(c1)OCCC2N1CCOC[C@H]1c1ccccc1 (stereo partly drawn) [Example 75, 4-((R)-3-phenylmorpholino)-N-(1,2,4-thiadiazol-5-yl)chromane-7-sulfonamide] | 0.0859 µM
5 | CC1(C)CCN(Cc2cc(F)c(S(=O)(=O)Nc3ncns3)cc2F)[C@@H](c2ccccc2)C1 (single isomer, unassigned) [Example 3] | 9.28 µM
6 | O=S(=O)(Nc1nccs1)c1cc2c(cc1F)[C@H](N1CCCC[C@H]1c1ccccc1)CCO2 (single isomer, unassigned) [Example 91] | 0.109 µM
7 | O=S(=O)(Nc1nccs1)c1ccc2c(c1)OCC[C@H]2N1CCCC[C@H]1c1ccccc1 (single isomer, unassigned) [Example 103] | 0.90 µM
8 | O=S(=O)(Nc1ncns1)c1ccc2c(c1)C(F)(F)CC[C@@H]2N1CCCC[C@H]1c1cccnc1 (single isomer, unassigned) [Example 227] | 0.249 µM
9 | O=S(=O)(Nc1ncns1)c1ccc2c(c1)OCC[C@H]2N1CCN(CC(F)(F)F)C[C@H]1c1ccc(F)cc1 [Example 220, (R)-4-((R)-2-(4-fluorophenyl)-4-(2,2,2-trifluoroethyl)piperazin-1-yl)-N-(1,2,4-thiadiazol-5-yl)chromane-7-sulfonamide] | 0.0494 µM
10 | O=S(=O)(Nc1ncns1)c1ccc2c(c1)OCC[C@@H]2N1CCCC[C@@H]1c1ccc(F)cc1 (single isomer, unassigned) [Example 78] | 0.679 µM
11 | O=S(=O)(Nc1ncns1)c1ccc2c(c1)OCC[C@@H]2N1CC[C@@H](C(F)(F)F)C[C@H]1c1ccn[nH]1 (single isomer, unassigned) [Example 143] | 8.9 µM
12 | O=S(=O)(Nc1ncns1)c1ccc2c(c1)OCC[C@@H]2N1CCN(CC(F)(F)F)C[C@H]1c1ccccc1 (single isomer, unassigned) [Example 82] | 0.0156 µM
13 | Cn1nccc1[C@H]1C[C@@H](C(F)(F)F)CCN1[C@@H]1CCOc2cc(S(=O)(=O)Nc3ncns3)ccc21 (single isomer, unassigned) [Example 126] | 0.313 µM
14 | O=S(=O)(Nc1ncns1)c1ccc(CN2CCC[C@@H]2c2ccccc2)c(Cl)c1 [Example 49, (R)-3-chloro-4-((2-phenylpyrrolidin-1-yl)methyl)-N-(1,2,4-thiadiazol-5-yl)benzenesulfonamide] | 6.81 µM
15 | N#C[C@@H]1CCN([C@@H]2CCOc3cc(S(=O)(=O)Nc4ncns4)ccc32)[C@H](c2ccc(F)cc2)C1 [Example 178, (R)-4-((2S,4R)-4-cyano-2-(4-fluorophenyl)piperidin-1-yl)-N-(1,2,4-thiadiazol-5-yl)chroman-7-sulfonamide] | 1.02 µM
16 | CS(=O)(=O)N1CCN([C@H]2CCOc3cc(S(=O)(=O)Nc4ncns4)ccc32)[C@H](c2ccc(F)cc2)C1 [Example 226, (S)-4-((R)-2-(4-fluorophenyl)-4-(methylsulfonyl)piperazin-1-yl)-N-(1,2,4-thiadiazol-5-yl)chromane-7-sulfonamide] | 0.0305 µM
17 | Cn1nccc1[C@H]1C[C@@H](C(F)(F)F)CCN1[C@@H]1CCOc2cc(S(=O)(=O)Nc3nccs3)c(F)cc21 [Example 160] | 0.442 µM

Row | Compound | Nav1.7 (LBA)
18 | O=S(=O)(Nc1ncns1)c1ccc2c(c1)OCC[C@H]2N1CC[C@@H](C(F)(F)F)C[C@H]1c1ccn[nH]1 (single isomer, unassigned) [Example 144] | 0.282 µM
19 | O=S(=O)(Nc1ncns1)c1ccc2c(c1)OCC[C@@H]2N1CCC[C@H]1c1ccccc1 (single isomer, unassigned) [Example 39] | 0.274 µM
20 | C[C@H](c1cc(F)c(S(=O)(=O)Nc2ncns2)cc1F)N1CCCC[C@@H]1c1ccccc1 (single isomer, unassigned) [Example 16] | 3.65 µM
21 | C[C@H](c1ccc(S(=O)(=O)Nc2ncns2)cc1Cl)N1CCCC[C@@H]1c1ccccc1 (single isomer, unassigned) [Example 60] | 0.33 µM
22 | O=S(=O)(Nc1ncns1)c1ccc2c(c1)OCC[C@H]2N1CC[C@H](C(F)F)C[C@@H]1c1ccc(F)cc1 [Example 188, (R)-4-((2R,4S)-4-(difluoromethyl)-2-(4-fluorophenyl)piperidin-1-yl)-N-(1,2,4-thiadiazol-5-yl)chroman-7-sulfonamide] | 0.131 µM
23 | O=S(=O)(Nc1ncns1)c1ccc2c(c1)CCC[C@@H]2N1CCCC[C@H]1c1ccccc1 (single isomer, unassigned) [Example 54] | 0.411 µM
24 | O=S(=O)(Nc1ncns1)c1ccc2c(c1)OCC[C@@H]2N1CCC2(CC1)COC2 [Example 153, (S)-4-(2-oxa-7-azaspiro[3.5]nonan-7-yl)-N-(1,2,4-thiadiazol-5-yl)chromane-7-sulfonamide] | 5.5 µM
25 | O=S(=O)(Nc1ncns1)c1ccc2c(c1)OCC[C@H]2N1CC[C@H](OC(F)(F)F)C[C@@H]1c1ccc(F)cc1 [Example 176, (R)-4-((2R,4S)-2-(4-fluorophenyl)-4-(trifluoromethoxy)piperidin-1-yl)-N-(1,2,4-thiadiazol-5-yl)chroman-7-sulfonamide] | 0.0248 µM
26 | O=S(=O)(Nc1ncns1)c1ccc2c(c1)OCC[C@@H]2N1CC[C@@H](CF)C[C@H]1c1ccc(F)cc1 [Example 182, (S)-4-((2S,4R)-4-(fluoromethyl)-2-(4-fluorophenyl)piperidin-1-yl)-N-(1,2,4-thiadiazol-5-yl)chroman-7-sulfonamide] | 0.00399 µM
27 | O=S(=O)(Nc1ncns1)c1ccc2c(c1)OCC[C@@H]2N1CCNC[C@H]1c1ccc(F)cc1 [Example 218, (S)-4-((R)-2-(4-fluorophenyl)piperazin-1-yl)-N-(1,2,4-thiadiazol-5-yl)chromane-7-sulfonamide] | 0.0941 µM
28 | O=S(=O)(Nc1ncns1)c1cc(F)c(CN2CCCC[C@H]2c2ccnnc2)cc1F (single isomer, unassigned) [Example 11] | 1.26 µM
29 | O=S(=O)(Nc1ncns1)c1ccc2c(c1)OCC[C@@H]2N1CCC(C(F)F)CC1 [Example 150, (S)-4-(4-(difluoromethyl)piperidin-1-yl)-N-(1,2,4-thiadiazol-5-yl)chromane-7-sulfonamide] | 1.44 µM
30 | CS(=O)(=O)[C@H]1CCN([C@@H]2CCOc3cc(S(=O)(=O)Nc4ncns4)ccc32)[C@@H](c2ccc(F)cc2)C1 [Example 164, (R)-4-((2R,4S)-2-(4-fluorophenyl)-4-(methylsulfonyl)piperidin-1-yl)-N-(1,2,4-thiadiazol-5-yl)chroman-7-sulfonamide] | 0.208 µM
31 | O=S(=O)(Nc1ncns1)c1cc2c(cc1F)[C@@H](N1CCCC[C@H]1c1ccc(F)cc1)CCO2 (racemic) [Example 87, (±)-(S)-6-fluoro-4-((S)-2-(4-fluorophenyl)piperidin-1-yl)-N-(1,2,4-thiadiazol-5-yl)chromane-7-sulfonamide] | 0.00726 µM
32 | O=S(=O)(Nc1cscn1)c1cc2c(cc1F)[C@@H](N1CCCC[C@H]1c1ccccc1)CCO2 (single isomer, unassigned) [Example 99] | 0.091 µM
33 | O=S(=O)(Nc1ncns1)c1cc(Cl)c(CN2CCCCC2c2ccccc2)cc1F (stereo not drawn) [Example 68, 5-chloro-2-fluoro-4-((2-phenylpiperidin-1-yl)methyl)-N-(1,2,4-thiadiazol-5-yl)benzenesulfonamide] | 0.334 µM
